Results on one compound are retold here after patent US20230093975A1, “I[…] FOR TREATING CENTRAL NERVOUS SYSTEM DISORDERS” (priority 2021, published 2023).

Each structure is given as a SMILES string. Read-outs that look alike come from different tables or passages of the source.

Data set [1] can be described thus: Oral rivastigmine pharmacokinetics and estimated CSF uptake (Exelon label). It counts as in vivo. Particulars: plasma volume 2750 mL, CSF volume 150 mL. The procedure:
Drug coating and formulation development. The absolute bioavailability of oral rivastigmine is approximately 40%, and the AUC1-12 h cerebral spinal fluid (CSF)/plasma ratio is about 40% (Novartis Exelon® Capsules and Oral Solution Prescribing Information). An estimated 0.87% of the rivastigmine oral dose is absorbed and distributed into the CSF. Thus, the daily CSF uptake of this drug is estimated to be between 26-105 μg. As a starting point for the formulation development, we will first target to formulate a matrix loaded with rivastigmine which will be released over 30 days in a near linear manner. Bilateral administration of the rivastigmine matrix would result in approximately 21-107 μg rivastigmine delivered to CSF/day, assuming a CSF bioavailability between 10-50%.
For oral administration, delivery, an absolute bioavailability of Rivastigmine is about 40% and a mean AUC (area under the curve) 1-12 hr CSF/Plasma is about 40% (Exelon Label). The daily doses delivered to CSF are 26 μg/day, 52 μg/day, 79 μg/day, and 105 μg/day for the oral doses, equating to 1.5 mg BID, 3 mg BID, 4.5 mg BID, and 6 mg BID, respectively. For this estimation, a plasma volume of 2750 mL and a CSF volume of 150 mL are used.

For data set [2] the following is noted: oral rivastigmine, cited from earlier work.

With `CCN(C)C(=O)Oc1cccc([C@H](C)N(C)C)c1` [Rivastigmine], the “share of oral dose absorbed and distributed into the CSF” value in data set [1] is 0.87%. Besides, the “AUC1-12 h CSF/plasma ratio” value was “about 40%” in data set [2] and “approximately 40%” in data set [2] (listed as rivastigmine).
